Values joined by “and” are separate entries in the source; they are usually repeats but may differ in a detail not shown here. Identical values can stand only once.
Experiments:
HIV-1 = assay: microbe, parasite or virus in culture
Source text: (§1) FIGS. 1-4 are plots of the log10 of the meso-2,3 dimercaptosuccinic acid concentrations (as moles/L or Molar) against the measured test values expressed as a percentage of the uninfected, untreated control values.
The procedure used to test dimercaptosuccinic acid's activity against Human Immunodeficiency Virus (HIV) is the assay developed by Owen S. Weislow et al. described in "Journal of the National Cancer Institute," Vol. 81, No. 8, April 19, 1989 which is hereby incorporated herein by reference. The assay basically involves the killing of T4 lymphocytes by HIV. Small amounts of HIV are added to cells, and a complete cycle of virus reproduction is necessary to obtain the required cell killing. Agents that interact with virions, cells, or virus gene-products to interfere with viral activities will protect cells from cytolysis. All tests are compared with at least one positive (e.g., AZT-treated) control done at the same time under identical conditions.
(§2) 1. Dimercaptosuccinic acid was dissolved in dimethyl sulfoxide (unless otherwise instructed) then diluted 1:100 in cell culture medium before preparing serial half-log10 dilutions. T4 lymphocytes (CEM cell line) were added and after a brief interval HIV-1 is added, resulting in a 1:200 final dilution of the compound. Uninfected cells with the compound serve as a toxicity control, and infected and uninfected cells without the compound serve as basic controls.
(§3) 2. The cultures were incubated at 37° in a 5% carbon dioxide atmosphere for 6 days.
(§4) 3. The tetrazolium salt, XTT, was added to all wells, and cultures were incubated to allow formazan color development by viable cells.
(§5) 4. Individual wells were analyzed spectrophotometrically to quantitate formazan production, and in addition were viewed microscopically for detection of viable cells and confirmation of protective activity.
(§6) 5. Drug-treated virus-infected cells were compared with drug-treated noninfected cells and with other appropriate controls (untreated infected and untreated noninfected cells, drug-containing wells without cells, etc.) on the same plate.
6. The data was reviewed in comparison with four other tests done at the same time and a determination about activity was made.

[1] = system: T4 lymphocytes (CEM cell line); assay: Toxicity control: growth inhibition of uninfected T4 lymphocytes (CEM cell line), XTT; conditions: for Uninfected response: uninfected CEM cells, vs uninfected untreated control, 6 days, 8640 min
Method: as §1, §2, §3, §4, §5, §6

[2] = lead, mercury and arsenic; numerous animal studies; cited from earlier work
[3] = calcium, magnesium, manganese, iron and zinc; cited from earlier work

O=C(O)[C@@H](S)[C@@H](S)C(=O)O [dimercaptosuccinic acid, meso-2,3 dimercaptosuccinic acid]
Infected response (HIV-1; 1.40 × 10^-4 Molar, HIV-1 infected CEM cells, vs uninfected untreated control, 6 days, 140 µM, 8640 min, 140 µM): 84.32% of Control and 103.60% of Control and 95.01% of Control
Conclusion (determination of activity) (HIV-1; HIV-1, CEM cells, 6 days, Tables I-IV): CONFIRMED ACTIVE
viability at 140 µM (HIV-1; Human immunodeficiency virus 1, CCRF-CEM, in Homo sapiens, 144 h, read-out: Infected response, 1.40 × 10^-4 Molar, HIV-1 infected CEM cells, vs uninfected untreated control, 6 days): 94.3%
Overall conclusion on antiretroviral effectiveness (HIV-1; drawn from data of Tables I-IV): effective as a treatment for retroviruses in warm blooded animals
Uninfected response ([1]; 1.40 × 10^-4 Molar, 140 µM, 140 µM): 80.02% of Control and 81.43% of Control and 107.87% of Control and 105.07% of Control
Uninfected response ([1]; 1.40 × 10^-5 Molar, 14 µM, 14 µM): 74.62% of Control and 87.58% of Control and 118.28% of Control and 102.83% of Control
Uninfected response ([1]; 4.30 × 10^-4 Molar, 430 µM, 430 µM): 106.57% of Control and 107.46% of Control and 124.09% of Control and 128.49% of Control
Uninfected response ([1]; 4.40 × 10^-5 Molar, 44 µM, 44 µM): 84.59% of Control and 85.17% of Control and 125.62% of Control and 102.99% of Control
IC50 ([1]; Homo sapiens, CCRF-CEM, 144 h, read-out: 50% inhibitory concentration (IC50)): > 1.4 mM
Heavy metal chelating effect [2]: effective heavy metal chelating agent for lead, mercury and arsenic
Effect on excretion of essential minerals [3]: not to increase the excretion of essential minerals
